Key:
MM6-cells = test: XTT-viability test; type: cell-based; conditions: after 1.5 hours, FIG. 3
Procedure: The XTT-assay (Cell Proliferation Kit II (XTT), Roche molekulare Biochemikalien, Mannheim, Germany) was used for the quantification of the anti-proliferative or cytotoxic effects of the substances as synthesized. The assay is based on the conversion of the yellow tetrazolium-salt XTT into an orange formazan-dye by metabolically active cells. The XTT-formazan-dye is soluble in aqueous solutions, and can be directly determined in a quantitative fashion with an ELISA-reader. The incubation time varies depending from the respective experimental setting (e.g. the kind of cell and the cellular concentrations used). Following the addition of the final XTT-reagent, the absorption was determined at 490 nm, at different points in time (e.g. 30 minutes, 4, 6, 8, 12, and 18 hours). All data were analyzed with Microsoft Excel. The IC50 values were calculated with the program GRAFIT, Erithacus Software Ltd., Great Britain.
Using the commercial available XTT-test kit, the cytotoxic behavior of substances with different structural elements against MM6-cells was examined after 1.5 hours. Structural elements that are responsible for the cytotoxicity were identified. The amide-function in combination with free carboxylic acid-functions was identified as particularly cytotoxic.

[1] = test system: adhesion of PMN leukocytes to BAEC monolayer stimulated with TNF-α (selectin-mediated); test: Static adhesion assay (leukocyte adhesion to endothelial monolayer); type: cell-based, bovine; conditions: for potency in the static adhesion assay, bimosiamose compared with T3: bimosiamose at 600 μM versus T3 at 100 μM
Procedure: The reduction of adhesion of adhering leukocytes to the monolayer stimulated with TNF-α was set to 0%, the one in the untreated control-wells was set to 100%.
Following seeding in 24 well-plates, the examination of the adhesion was performed using (bovine aorta endothelial cells) BAEC monolayers of the cell passage 1-3 seven days. Before performing the assay, the completeness and the uniformity of the BAEC-monolayer was microscopically ensured. The culture medium (500 ml of medium M199, to which 6 ml of penicillin/streptomycin solution 1%, 6 ml L-glutamine (200 mM) and 100 ml (20%) of fetal calf serum, Sigma, Munich, were added) was removed, and the monolayer was washed twofold with DPBS (1000 μl/well, 37° C.). Subsequent to washing, the cells were treated with the cell culture medium containing 20 ng/ml of recombinant tumor necrosis-factor-alpha (TNFα) (in the presence of the respective test substance, dissolved in dimethylsulfoxide (DMSO) or only with DMSO as vehicle) […] at 37° C. and 5% CO2 for 4 hours. After another twofold washing with DPBS (1000 μl/well, 37° C.) 900 μl of the culture medium and 100 μl of a PMN-suspension (10^6 cells per ml) were added per well, and incubated for 30 minutes at 37° C. and 5% CO2. Non-adherent cells were removed by twofold washing with DPBS (1000 μl/well, 37° C.). […]
The BAEC-sections were analyzed with an inverse Leica DM IRS-microscope (Leica, Bensheim, Germany) at 100-fold magnification. […] For the manual counting of PMNs, several randomly selected sections of 0.25 mm^2 in size from the centre of the respective well of the well-plate were counted. […] In order to do so, each PMN in the area as chosen was counted by a PC-mouse click, and the counted cells were labeled. […]
The analysis of the pictures was performed using the publicly available ImageJ-software (available at http://rsb.info.nih.gov/ij), installed on a standard-PC (Maxdata, Mergel, Germany). All pictures as obtained in a test run were grouped into an series, and then analyzed in an automated method using a specifically programmed macro. […]

selectins = conditions: cited from earlier work

| SMILES | cytotoxic behavior (XTT) (MM6-cells) | potency in the static adhesion assay, bimosiamose compared with T3 [1] | affinity to the selectins compared to sLeX (selectins) | effect on the reduction of the adhesion (potency) ([1]; static assay, FIG. 1, leukocytes on TNF-α-stimulated BAEC monolayer, 10^-4-10^-7 mol/l tested) |
| --- | --- | --- | --- | --- |
| CS(=O)(=O)c1ccc(C2=C(c3ccccc3)C(=O)OC2)cc1 [Rofecoxib] | has cytotoxic effects | – | – | – |
| CCCCCCCCCCOc1cc(OCCCCCCCCCC)cc(OCCCCCC(=O)N(c2ccc(C(=O)O)cc2)c2ccc(C(=O)O)cc2)c1 [T3, 6-(3,5-Didecyloxyphenoxy)-hexanoic acid-N,N-bis(4-carboxyphenyl)amide] | – | about the same potency | – | – |
| O=C(O)Cc1cccc(-c2cc(CCCCCCc3ccc(O[C@H]4O[C@H](CO)[C@@H](O)[C@H](O)[C@@H]4O)c(-c4cccc(CC(=O)O)c4)c3)ccc2O[C@H]2O[C@H](CO)[C@@H](O)[C@H](O)[C@@H]2O)c1 [bimosiamose, 1,6-bis[3-(3-carboxymethylphenyl)-4-(2-alpha-D-mannopyranosyloxy)phenyl]hexane] | – | about the same potency | essentially higher affinity | – |
| CCCCCCCCCCOc1cc(OCCCCCCCCCC)cc(OCCCCCCN(c2ccc(C(=O)O)cc2)c2ccc(C(=O)O)cc2)c1 [T21, 4-(N-(6-(3,5-bis(decyloxy)phenoxy)hexyl)-N-(4-carboxyl-phenyl)amino)benzoic acid] | completely non-toxic | – | – | highly potent |
